From patent publication US4540700A, “Treatment of diabetic complications with certain spiro-imidazolidine-diones” (Alcon Laboratories, Inc., priority 1984, dated 1985)
Where “and” joins values, the source holds several entries; their conditions need not be identical. Equal values may be shown once.

System: cataract formation in galactocemic rats
Assay: in vivo dose response by intubation (per oral) in galactocemic rats, cataract (vacuole) formation
Parameters: species or system Charles River CD (Sprague-Dawley derived) male rats
Experimental: B. In vivo dose response studies were conducted to test the in vivo activity of the following compounds by intubation (per oral) in galactocemic rats on a 30% galactose diet previously described:
Stock suspensions of the test compounds and all dilutions of the compound were formulated with 0.03% by weight Tween 80.
Healthy, Charles River CD (outbred albino, Sprague-Dawley derived) male rats, aged 20-30 days, without observable ocular defects and ranging in weight from 35-45 grams, were acclimated to experimental conditions (in quarantine) for two days prior to beginning the study.
Rats were individually assigned to one of twenty-three groups according to a random number schedule. Two rats, belonging to the same drug-diet treatment group, were housed per cage. Treatment and control groups consisted of six (6) rats each with no replacement in the event of death, and were designated as follows:
Lenses of all eyes were examined with a hand-held ophthalmoscope in the early stages of cataract development and a penlight for the stages, snowflake-like, snowflake, and nuclear cataract. Lens grading occurred every day for the first ten study days, and then every other day until study Day 14.
The relative potency determination was made at 7 drug levels over half log dose intervals. The response (percent cataracts formed and/or the time to cataract formation) was plotted against mg/kg and/or moles/kg.
The study was directed to the suppression and/or elimination of the initial stages of cataract development characterized by vacuoles or snowflake-likeopacities only. It was assumed therefore that suppression and/or elimination of vacuoles or lens opacification by the test drugs affects the transport, absorption and/or metabolism of galactose in such a manner as to prevent subsequent osmotic disturbances normally leading to tissue degeneration and advanced cataract. Advanced cataract defined as stages 2-4 of the Sipple classification was assumed to be of secondary importance to the etiology of cataract inhibition.
In the event where cataract stage other than vacuole formed, such as snowflake-like opacities, this cataract was counted similarly as vacuole in percent cataract formation.
This study yielded this expected effect in the control groups.
All animals were fed Purina Laboratory Chow and water, ad libitum, for the two day acclimation period. All drugs were dosed orally by intubation using an animal feeding needle (Popper and Sons), 18 or 20 gauge, attached to a 1 or 3 ml syringe. Once the dosing time schedule was established, the schedule was followed throughout the study to compensate for any diurnal variation.
The animals were kept on a twelve hour day/night cycle. The temperature and humidity were determined each day at the scheduled dosing time of 1:00 p.m.
The animals were weighed every other day and adjustments to dosage amounts to compensate for weight gain were made each day prior to the dose time. All food was routinely withheld from all animal groups for four hours (9:00 a.m.) prior to the drug dose and restored two hours (3:00 p.m.) post-dose. Otherwise sufficient amounts of chow or diet mixture were maintained in the food hopper to allow the animals to eat ad libitum. There were two days of drug dosage with the animals remaining on Purina Laboratory Chow (Days 1 and 2). The 30% galactose diet mixture was introduced to the animals two hours post-dose on Day 3 which constituted Day 1 of the study.
All eyes were examined with a hand-held ophthalmoscope and/or penlight at the times designated in the Experimental Design section.
It has been found in previous studies that dilation of the eye with a mydriactic (i.e. Mydriacyl) is not necessary for accurate grading, due to the semi-transparent nature of the rat iris. In the early stages (i.e., grades -, ±, and +) the lens was observed by reflecting the ophthalmoscope beam off the retina back through the lens and iris. Using this technique, vacuoles appear as dark, almost opaque patches. […]

Compound: O=C1NC(=O)C2(CCOc3ccc(F)cc32)N1 (racemic) [Sarges Racemic, dl-spiro-(6-fluorochroman-4,4'-imidazolidine)-2',5'-dione, reference compound]
- Percent of Rat Eyes With at Least Vacuoles Formed (0.126 mg/kg p.o., Day 0): 0%
- Percent of Rat Eyes With at Least Vacuoles Formed (0.126 mg/kg p.o., Day 1): 0%
- Percent of Rat Eyes With at Least Vacuoles Formed (0.126 mg/kg p.o., Day 2): 0%
- Percent of Rat Eyes With at Least Vacuoles Formed (0.126 mg/kg p.o., Day 3): 0%
- Percent of Rat Eyes With at Least Vacuoles Formed (0.126 mg/kg p.o., Day 4): 0%
- Percent of Rat Eyes With at Least Vacuoles Formed (0.126 mg/kg p.o., Day 5): 0%
- Percent of Rat Eyes With at Least Vacuoles Formed (0.126 mg/kg p.o., Day 6): 33%
- Percent of Rat Eyes With at Least Vacuoles Formed (0.126 mg/kg p.o., Day 7): 33%
- Percent of Rat Eyes With at Least Vacuoles Formed (0.126 mg/kg p.o., Day 8): 50%
- Percent of Rat Eyes With at Least Vacuoles Formed (0.126 mg/kg p.o., Day 9): 58%
- Percent of Rat Eyes With at Least Vacuoles Formed (0.126 mg/kg p.o., Day 10): 83%
- Percent of Rat Eyes With at Least Vacuoles Formed (0.126 mg/kg p.o., Day 12): 83%
- Percent of Rat Eyes With at Least Vacuoles Formed (0.126 mg/kg p.o., Day 14): 100%
- Percent of Rat Eyes With at Least Vacuoles Formed (0.4 mg/kg p.o., Day 0): 0%
- Percent of Rat Eyes With at Least Vacuoles Formed (0.4 mg/kg p.o., Day 1): 0%
- Percent of Rat Eyes With at Least Vacuoles Formed (0.4 mg/kg p.o., Day 2): 0%
- Percent of Rat Eyes With at Least Vacuoles Formed (0.4 mg/kg p.o., Day 3): 0%
- Percent of Rat Eyes With at Least Vacuoles Formed (0.4 mg/kg p.o., Day 4): 0%
- Percent of Rat Eyes With at Least Vacuoles Formed (0.4 mg/kg p.o., Day 5): 0%
- Percent of Rat Eyes With at Least Vacuoles Formed (0.4 mg/kg p.o., Day 6): 33%
- Percent of Rat Eyes With at Least Vacuoles Formed (0.4 mg/kg p.o., Day 7): 33%
- Percent of Rat Eyes With at Least Vacuoles Formed (0.4 mg/kg p.o., Day 8): 50%
- Percent of Rat Eyes With at Least Vacuoles Formed (0.4 mg/kg p.o., Day 9): 58%
- Percent of Rat Eyes With at Least Vacuoles Formed (0.4 mg/kg p.o., Day 10): 83%
- Percent of Rat Eyes With at Least Vacuoles Formed (0.4 mg/kg p.o., Day 12): 83%
- Percent of Rat Eyes With at Least Vacuoles Formed (0.4 mg/kg p.o., Day 14): 100%
- Percent of Rat Eyes With at Least Vacuoles Formed (1.26 mg/kg p.o., Day 0): 0%
- Percent of Rat Eyes With at Least Vacuoles Formed (1.26 mg/kg p.o., Day 1): 0%
- Percent of Rat Eyes With at Least Vacuoles Formed (1.26 mg/kg p.o., Day 2): 0%
- Percent of Rat Eyes With at Least Vacuoles Formed (1.26 mg/kg p.o., Day 3): 0%
- Percent of Rat Eyes With at Least Vacuoles Formed (1.26 mg/kg p.o., Day 4): 0%
- Percent of Rat Eyes With at Least Vacuoles Formed (1.26 mg/kg p.o., Day 5): 0%
- Percent of Rat Eyes With at Least Vacuoles Formed (1.26 mg/kg p.o., Day 6): 0%
- Percent of Rat Eyes With at Least Vacuoles Formed (1.26 mg/kg p.o., Day 7): 0%
- Percent of Rat Eyes With at Least Vacuoles Formed (1.26 mg/kg p.o., Day 8): 8%
- Percent of Rat Eyes With at Least Vacuoles Formed (1.26 mg/kg p.o., Day 9): 17%
- Percent of Rat Eyes With at Least Vacuoles Formed (1.26 mg/kg p.o., Day 10): 83%
- Percent of Rat Eyes With at Least Vacuoles Formed (1.26 mg/kg p.o., Day 12): 100%
- Percent of Rat Eyes With at Least Vacuoles Formed (1.26 mg/kg p.o., Day 14): 100%
- Percent of Rat Eyes With at Least Vacuoles Formed (4.0 mg/kg p.o., Day 0): 0%
- Percent of Rat Eyes With at Least Vacuoles Formed (4.0 mg/kg p.o., Day 1): 0%
- Percent of Rat Eyes With at Least Vacuoles Formed (4.0 mg/kg p.o., Day 2): 0%
- Percent of Rat Eyes With at Least Vacuoles Formed (4.0 mg/kg p.o., Day 3): 0%
- Percent of Rat Eyes With at Least Vacuoles Formed (4.0 mg/kg p.o., Day 4): 0%
- Percent of Rat Eyes With at Least Vacuoles Formed (4.0 mg/kg p.o., Day 5): 0%
- Percent of Rat Eyes With at Least Vacuoles Formed (4.0 mg/kg p.o., Day 6): 0%
- Percent of Rat Eyes With at Least Vacuoles Formed (4.0 mg/kg p.o., Day 7): 0%
- Percent of Rat Eyes With at Least Vacuoles Formed (4.0 mg/kg p.o., Day 8): 0%
- Percent of Rat Eyes With at Least Vacuoles Formed (4.0 mg/kg p.o., Day 9): 0%
- Percent of Rat Eyes With at Least Vacuoles Formed (4.0 mg/kg p.o., Day 10): 0%
- Percent of Rat Eyes With at Least Vacuoles Formed (4.0 mg/kg p.o., Day 12): 17% and 16.7%
- Percent of Rat Eyes With at Least Vacuoles Formed (4.0 mg/kg p.o., Day 14): 50%
- Percent of Rat Eyes With at Least Vacuoles Formed (12.6 mg/kg p.o., Day 0): 0%
- Percent of Rat Eyes With at Least Vacuoles Formed (12.6 mg/kg p.o., Day 1): 0%
- Percent of Rat Eyes With at Least Vacuoles Formed (12.6 mg/kg p.o., Day 2): 0%
- Percent of Rat Eyes With at Least Vacuoles Formed (12.6 mg/kg p.o., Day 3): 0%
- Percent of Rat Eyes With at Least Vacuoles Formed (12.6 mg/kg p.o., Day 4): 0%
- Percent of Rat Eyes With at Least Vacuoles Formed (12.6 mg/kg p.o., Day 5): 0%
- Percent of Rat Eyes With at Least Vacuoles Formed (12.6 mg/kg p.o., Day 6): 0%
- Percent of Rat Eyes With at Least Vacuoles Formed (12.6 mg/kg p.o., Day 7): 0%
- Percent of Rat Eyes With at Least Vacuoles Formed (12.6 mg/kg p.o., Day 8): 0%
- Percent of Rat Eyes With at Least Vacuoles Formed (12.6 mg/kg p.o., Day 9): 0%
- Percent of Rat Eyes With at Least Vacuoles Formed (12.6 mg/kg p.o., Day 10): 0%
- Percent of Rat Eyes With at Least Vacuoles Formed (12.6 mg/kg p.o., Day 12): 0%
- Percent of Rat Eyes With at Least Vacuoles Formed (12.6 mg/kg p.o., Day 14): 8% and 0.3%
- Percent of Rat Eyes With at Least Vacuoles Formed (40 mg/kg p.o., Day 0): 0%
- Percent of Rat Eyes With at Least Vacuoles Formed (40 mg/kg p.o., Day 1): 0%
- Percent of Rat Eyes With at Least Vacuoles Formed (40 mg/kg p.o., Day 2): 0%
- Percent of Rat Eyes With at Least Vacuoles Formed (40 mg/kg p.o., Day 3): 0%
- Percent of Rat Eyes With at Least Vacuoles Formed (40 mg/kg p.o., Day 4): 0%
- Percent of Rat Eyes With at Least Vacuoles Formed (40 mg/kg p.o., Day 5): 0%
- Percent of Rat Eyes With at Least Vacuoles Formed (40 mg/kg p.o., Day 6): 0%
- Percent of Rat Eyes With at Least Vacuoles Formed (40 mg/kg p.o., Day 7): 0%
- Percent of Rat Eyes With at Least Vacuoles Formed (40 mg/kg p.o., Day 8): 0%
- Percent of Rat Eyes With at Least Vacuoles Formed (40 mg/kg p.o., Day 9): 0%
- Percent of Rat Eyes With at Least Vacuoles Formed (40 mg/kg p.o., Day 10): 0%
- Percent of Rat Eyes With at Least Vacuoles Formed (40 mg/kg p.o., Day 12): 0%
- Percent of Rat Eyes With at Least Vacuoles Formed (40 mg/kg p.o., Day 14): 0%
